# Key:
# [1] = Stability under light in DMSO by UV-vis; type: physicochemical; conditions: first 2.5 h
# Text: The stability of the stock solutions and the effect of diffuse solar irradiation were monitored in DMSO by UV–visible (UV–vis, see Methods) spectra in the 260 to 860 nm wavelength range, and the path length was 1 cm. The initial sample was divided equally into two portions for the stability studies; one portion was irradiated with diffuse light and followed over time, while the other one was stored, protected from light, and measured 1 day after dissolution.
# [2] = Stability and DMSO coordination in DMSO by 1H NMR; type: physicochemical
# Procedure: (a) Complex (2) solutions in DMSO (D2O) investigated by NMR spectroscopy: Trying to investigate if the higher concentration is responsible for the complex transformation process in DMSO, we monitored the solution of complex (2) at 0.5 and 1 mM by ^1H NMR spectroscopy (Figure a). We could clearly see that complex (2) is only detected pure at a concentration of 0.5 mM.
# NMR spectra were recorded at room temperature, using a two-channel 300 MHz Bruker Avance III-HD Nanobay spectrometer equipped with a 5 mm BBO 1H/X probe and Z gradients, located at the Interdepartmental Investigation Service (SIdI). DMSO-d 6 was used as the solvent (containing 0.05% (v/v) tetramethylsilane (TMS) as a reference). Chemical shift values are given in parts per million relative to the residual TMS signals. The following abbreviations were used: s (singlet), d (doublet), and m (multiplet). Elemental analyses were performed on a LECO CHNS-932 elemental analyzer located at SIdI. Mass spectra were recorded using FAB (fast atom bombardment) in a Waters VG AutoSpec mass spectrometry unit and using MALDI (matrix-assisted laser desorption/ionization) with a Bruker Ultraflex III (MALDI-TOF/TOF) mass spectrometry unit, both located at SIdI. Infrared (IR) spectra were recorded using a PerkinElmer Model 283 spectrometer with an attenuated total reflectance (ATR) MIRacle Single Reflection Horizontal accessory and equipped with CsI optical windows for spectra between 600 and 200 cm^–1 in Nujol mull preparations. Absorbance spectra were recorded using a Thermo Evolution 220 spectrophotometer to record the UV–visible region, equipped with temperature control within ±0.1 °C. Viscosity measurements were performed using an A&D SV-1A vibro viscometer. HPLC analyses were carried out utilizing a 1200 Infinity series HPLC system provided by Agilent Technologies coupled to a photodiode array detector.
# [3] = biological target: T1, hen egg white lysozyme (HEWL) (Gallus gallus, UniProt P00698); assay: Reaction with lysozyme followed by UV-vis at 280 nm, pseudo-first-order kinetics; type: binding; conditions: metal:protein 3:1, 5 mM Tris/3% DMSO, 37 °C, absorbance at 280 nm
# T1 construct: a model protein, namely HEWL (hen egg white lysozyme), was also studied; from tissue; host or cells: hen egg white (from the protein's name)
# T1 sequence (P00698 19-147): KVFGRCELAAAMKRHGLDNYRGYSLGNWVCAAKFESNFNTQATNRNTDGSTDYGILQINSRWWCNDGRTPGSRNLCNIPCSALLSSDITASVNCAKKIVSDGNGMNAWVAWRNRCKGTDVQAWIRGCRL
# Procedure: The interaction of complexes (2) and (3) with hen egg white lysozyme (HEWL) was investigated using a 10^–5 M solution of the protein. Lysozyme is a widely used model protein for studying the binding of potential metallodrugs. The sample preparation for this assay was carried out using the same protocol of the samples for the DNA interactions studies by UV–vis spectrophotometry. The integrity of the enzyme was checked in each experiment, with a comparison of fresh and incubated samples. UV–vis spectra were recorded before and after incubation with the complex (dissolved in 97% 5 mM Tris/3% DMSO) for 24 h at 37 °C. A metal to protein ratio of 3:1 was used for these studies, a ratio that affords similar results to 10:1 and eases the sample preparation. The experimental time-dependent profiles of the spectra were analyzed as pseudo-first-order reactions by plotting the variation of the absorbance as a function of time.
# [4] = Spectrophotometric (UV-vis) pH titrations for proton dissociation constants; type: physicochemical; conditions: 60% (v/v) DMSO/H2O
# Procedure: Spectrophotometric titrations were applied to study the equilibrium processes (proton dissociation and complex dissociation/formation) in DMSO/H2O mixtures due to the limited aqueous solubility of the compounds. The calibration of the electrode system was performed by strong acid–strong base pH-potentiometric titrations in 30% (v/v) and 60% (v/v) DMSO/H2O solvent mixtures at 25.0 ± 0.1 °C as described in our previous works. , KCl (0.1 M) was the supporting electrolyte to maintain constant ionic strength, which refers to the chloride ion concentration in blood plasma. […] The initial sample volume was 5 mL. Spectrophotometric titrations were performed in the pH range 1.8–12.5 for 30% (v/v) DMSO/H2O medium and 1.8–14.0 for 60% (v/v) DMSO/H2O medium. Prior to the titrations, purified argon was passed through the samples for approximately 10 min to remove CO2 traces, and argon was also passed over the samples during these measurements. The proton dissociation constants were calculated by using the computer program PSEQUAD.
# [5] = system: glutathione (GSH); assay: Reaction with glutathione followed by UV-vis; conditions: 30-fold GSH, ~20 μM complex, 60% (v/v) DMSO/phosphate buffer pH 7.4, 25.0 °C
# Procedure: Reactions between the title compounds and GSH were also followed by UV–vis spectrophotometry under an inert atmosphere to overcome oxidation of GSH by air oxygen. Samples contained the metal complexes at low concentrations (∼20 μM) and were prepared using 60% (v/v) DMSO/phosphate buffer solution (pH 7.4) to avoid precipitation. The reactants were separated in the pockets of a tandem cuvette, followed by deoxygenation by argon bubbling. The separate solutions were mixed at 1:30 metal complex:GSH molar ratios, and UV–vis spectra were recorded. Argon was continuously passed over the sample during the whole measurement.
# [6] = system: pBR322 plasmid DNA; assay: Agarose gel electrophoresis mobility shift; type: binding; conditions: r i 0.01 to 0.20, 24 h, 37 °C
# Procedure: Complexes (2) and (3) were incubated at 37 °C with a concentration of 0.0625 μg/μL pBR322 plasmid DNA at different concentrations expressed as r i = complex:DNA (base pair) ratio. The r i used was from 0.01 to 0.20, in a total volume of 20 μL. After an incubation period of 24 h, the mobility of the complex-treated pBR322 samples was analyzed by gel electrophoresis at 70 V in Tris/acetate/EDTA buffer. A control of pBR322 was also incubated, and a 1 kb ladder aliquot was loaded into lane 1 of the gel. The gel was stained with an ethidium bromide aqueous solution, and DNA bands were visualized with a UV-transilluminator UVITEC Cambridge UVIDOC HD2 instrument. The studies were performed with 3% (v/v) DMSO as the final solution.
structure (smiles),measurement,setting,value
"Clc1ccc(N=C2N[N+](=Cc3c[nH]cn3)[Pd-2]3([S]C(Nc4ccc(Cl)cc4)=N[N+]3=Cc3c[nH]cn3)[S]2)cc1 (stereo not drawn) [(2), Bis(1H-imidazole-4-carboxaldehyde-4N-p-chlorophenylthiosemicarbazonato)palladium(II)]",spectral changes when not protected from light,[1],only minor changes
same,molar fraction of DMSO-coordinated species (complex (3)) formed,[2]; 0.5 mM,0%
same,molar fraction of DMSO-coordinated species (complex (3)) formed,"[2]; 3 mM, does not increase over 24 h",8%
same,time 1H NMR spectrum remains stable,[2]; in DMSO,up to 24 h
same,observed rate constant k obs,[3],(8.83 ± 0.05) × 10^–5 s^–1
same,pKa1,"[4]; I = 0.10 M (KCl), 25.0 °C",2.97 ± 0.02
same,pKa2,"[4]; I = 0.10 M (KCl), 25.0 °C",8.40 ± 0.02
same,pKa3,"[4]; I = 0.10 M (KCl), 25.0 °C",11.31 ± 0.01
same,reduction of proton dissociation constant of step I compared to the ligand,[4]; same medium,0.8 logarithm units
same,reduction of proton dissociation constant of step II compared to the ligand,[4]; same medium,2.7 logarithm units
same,time to equilibrium of the reaction with GSH,[5],≤ 30 min
same,effect on electrophoretic mobility of supercoiled pBR322 (pure form),[6],small unwinding

# Reference: PMC12648656, “Palladium(II) Complexes with Noncovalent Interactions with DNA: Solution Speciation Controlled by Solvent Identity, pH, and Concentration” (Inorganic Chemistry, 2025)
